One assay has as its system SREBP pathway. Put plainly: SREBP luciferase reporter gene system (SRE-luciferase assay). To be noted: Homo sapiens, Huh-7, 16 h, Huh-7/SRE-luc cells, sterol-deficient medium, 0.01-10 µM. It counts as cell-based, human. The method, boiled down: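 Readout was SRE-driven luciferase normalised to GFP fluorescence in lysates of stably transfected Huh-7/SRE-luc hepatoma cells. Compounds (0.01, 0.03, 0.1, 0.3, 1.0, 3.0, 10 µM; DMSO control) were applied for 16 h in sterol-depleted medium with 2 µM lovastatin and 10 µM mevalonate; IC50 from variable-slope fit.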
On the technique in general: A reporter such as luciferase makes a cellular process visible.

The subject of assay [1] is Fatty Acid Synthase (FASN) gene. Put plainly: Inhibition of FASN gene expression (qPCR) in Huh-7 cells. As to conditions: Homo sapiens, Huh-7, 16 h, Huh-7 cells, starvation medium, 16 hours, qPCR; class symbols; read-out: FASN IC50. It counts as cell-based, human. As for the experimental part:
Huh-7 cells (purchased from ATCC) were cultured in DMEM medium (containing 10% fetal bovine serum LONSERA S711-001S) at 37°C in a 5% CO2 incubator. After 24 hours, the original medium was aspirated and replaced with DMEM starvation medium (containing 5% lipoprotein deficient serum (LPDS), 2 µM lovastatin, and 10 µM mevalonate). The control group was treated with dimethyl sulfoxide (DMSO), while the compound treatment groups were treated with different concentrations of compounds. The highest concentration of the compound was 3000 nM, with 3-fold dilutions, totaling 5 concentrations. The cells were cultured for 16 hours. Cell lysis was performed, followed by reverse transcription from cells to cDNA, and qPCR was performed to detect the expression of the SREBP target gene Fatty Acid Synthase (FASN) gene (FASN gene forward primer sequence: 5'-[…]-3', reverse primer sequence: 5'-[…]-3'). The IC50 was calculated. The test data for each test compound were analyzed using Prism software (with the DMSO-treated group as the reference to calculate the compound inhibition rate, fitted using the Prism log(inhibitor) vs. responseVariable slope (four-parameter) model, calculation formula: Y = Bottom + (Top - Bottom)/(1 + 10^((LogIC50 - X) × HillSlope))), to obtain the IC50 parameters of the compounds. Table 4: Inhibition results of FASN gene expression by compounds from some examples
On the technique in general: In qPCR the cycle at which signal appears reflects the starting amount.

Structures are written as SMILES. A value given as a limit tells only on which side of the number the result lay.

Broadly, the IC50 is the point on the concentration scale where inhibition reaches its midpoint. On to `COc1cccc(F)c1C(O)CCC[C@@H](C)[C@H]1CC[C@H]2C3=C(F)C[C@H]4[C@@H](O)[C@@H](O)CC[C@]4(C)[C@H]3CC[C@]12C` (stereo partly drawn) [Compound 105, (1R,3aR,5aR,6R,7S,9aR,9bR,11aR)-4-fluoro-1-[(2R)-6-(2-fluoro-6-methoxyphenyl)-6-hydroxyhexan-2-yl]-9a,11a-dimethyl-2,3,3a,5,5a,6,7,8,9,9a,9b,10,11,11a-tetradecahydro-1H-cyclopenta[1,2-a]phenanthrene-6,7-diol], for which the IC50 is 0.109 µM with SREBP pathway and 200 to 500 nM in assay [1].
Regarding `C[C@H](CCCC(O)c1cccc2c1OC(F)(F)O2)[C@H]1CC[C@H]2[C@H]3[C@H](CC[C@]12C)[C@@]1(C)CC[C@H](O)[C@H](O)[C@@H]1CC3(F)F` (single isomer, unassigned) [Compound 194, (1R,3aS,3bS,5aR,6R,7S,9aR,9bS,11aR)-1-[(2R,6S)-6-(2,2-difluorobenzo[d][1,3]dioxol-4-yl)-6-hydroxyhexan-2-yl]-4,4-difluoro-9a,11a-dimethylhexadecahydro-1H-cyclopenta[1,2-a]phenanthrene-6,7-diol or (1R,3aS,3bS,5aR,6R,7S,9aR,9bS,11aR)-1-[(2R,6R)-6-(2,2-difluorobenzo[d][1,3]dioxol-4-yl)-6-hydroxyhexan-2-yl]-4,4-difluoro-9a,11a-dimethylhexadecahydro-1H-cyclopenta[1,2-a]phenanthrene-6,7-diol], the values for the IC50 (in the assay with SREBP pathway; in assay [1]) were 0.102 µM and 200 to 500 nM, respectively.
On to `COc1nc(F)ccc1[C@H](O)CCC[C@@H](C)[C@H]1CC[C@H]2[C@H]3[C@H](CC[C@]12C)[C@@]1(C)CC[C@H](O)C[C@@H]1CC3(F)F` [Compound 313, (1R,3aS,3bR,5aR,7S,9aS,9bS,11aR)-4,4-difluoro-1-[(2R,6R)-6-(6-fluoro-2-methoxypyridin-3-yl)-6-hydroxyhexan-2-yl]-9a,11a-dimethylhexadecahydro-1H-cyclopenta[1,2-a]phenanthren-7-ol], for which the IC50 in the assay on SREBP pathway was 0.076 µM; in assay [1], 500 to 900 nM.
For `COc1ccnc(F)c1[C@H](O)CCC[C@@H](C)[C@H]1CC[C@H]2[C@H]3[C@H](CC[C@]12C)[C@@]1(C)CC[C@H](O)[C@H](O)[C@@H]1CC3(F)F` (single isomer, unassigned) [Compound 230], the IC50 is 0.062 µM with SREBP pathway and < 200 nM in assay [1].
Consider `COc1ncccc1C(O)CCC[C@@H](C)[C@H]1CC[C@H]2C3=C(F)C[C@H]4[C@@H](O)[C@@H](O)CC[C@]4(C)[C@H]3CC[C@]12C` (stereo partly shown) [Compound 83], for which the figures for the IC50 (in the assay with SREBP pathway; in assay [1]) were 0.092 µM and 200 to 500 nM, respectively.
Turning to `C[C@H](CCCC(O)c1ccc(F)cc1)[C@H]1CC[C@H]2C3=C(F)C[C@H]4[C@@H](O)[C@@H](O)CC[C@]4(C)[C@H]3CC[C@]12C` (stereo partly drawn) [Compound 101, (1R,3aR,5aR,6R,7S,9aR,9bR,11aR)-4-fluoro-1-[(2R)-6-(4-fluorophenyl)-6-hydroxyhexan-2-yl]-9a,11a-dimethyl-2,3,3a,5,5a,6,7,8,9,9a,9b,10,11,11a-tetradecahydro-1H-cyclopenta[1,2-a]phenanthrene-6,7-diol], the IC50 was 0.298 µM with SREBP pathway and 200 to 500 nM in assay [1].
`C[C@H](CCCC(O)c1c(F)cc(F)cc1F)[C@H]1CC[C@H]2[C@H]3[C@H](CC[C@]12C)[C@@]1(C)CC[C@H](O)[C@H](O)[C@@H]1CC3(F)F` (stereo partly drawn) [Compound 69, (1R,3aS,3bS,5aR,6R,7S,9aR,9bS,11aR)-4,4-difluoro-1-[(2R)-6-hydroxy-6-(2,4,6-trifluorophenyl)hexan-2-yl]-9a,11a-dimethylhexadecahydro-1H-cyclopenta[1,2-a]phenanthrene-6,7-diol]: the IC50 is 0.086 µM in the assay with SREBP pathway and < 200 nM in assay [1].
For `C[C@H](CCC[C@H](O)c1c(F)ccnc1F)[C@H]1CC[C@H]2[C@H]3[C@H](CC[C@]12C)[C@@]1(C)CC[C@H](O)[C@H](O)[C@@H]1CC3(F)F` (single isomer, unassigned) [Compound 233] the same measures were 0.106 µM and 200 to 500 nM.

Values taken from patent publication EP4752152A1, “STEROID COMPOUND, AND PREPARATION METHOD THEREFOR AND USE THEREOF” (Cholesgen (Shanghai) Co.Ltd., priority 2023, dated 2025).
